From publication PMC5833756, “A novel ruthenium complex with xanthoxylin induces S-phase arrest and causes ERK1/2-mediated apoptosis in HepG2 cells through a p53-independent pathway” (Cell Death & Disease, 2018)
Read-outs that look alike come from different tables or passages of the source. Marks after values point to notes of the source that are not given here. Residues, ends and D or L forms follow the SMILES beside them. *: point of attachment. Cbz = O=C(OCc1ccccc1)*; CH2F = FC*

Legend:
[1] = DOX 0.3 mg/kg, 5-FU 10 mg/kg
Method: (§1) HepG2 cells (1 × 10^7 cells per 500 µL) were implanted subcutaneously into the left front armpit of the mice. […] The treatments were initiated one day after the tumor cell injection. The animals were treated intraperitoneally (200 µL per animal) once daily for 21 consecutive days. On the 22nd day, the animals were anesthetized, and peripheral blood samples were collected from the brachial artery. Animals were euthanized by anesthetic overdose, and tumors were excised and weighed.
To assess the toxicological effects, mice were weighed at the beginning and at the end of the experiment. […] Hematological analysis was performed using light microscopy. Livers, kidneys, lungs and hearts were removed, weighed and examined for any signs of gross lesions, color changes and/or hemorrhages. After gross macroscopic examination, the tumors, livers, kidneys, lungs and hearts were fixed in 4% formalin buffer and embedded in paraffin. Tissue sections were stained with hematoxylin and eosin chromogens, and a pathologist performed the analysis under a light microscope.

BAD KO SV40 MEF = type: cell-based, mouse; conditions: Mus musculus, 72 h
WT SV40 MEF = type: cell-based, mouse; conditions: Mus musculus, 72 h
HepG2 cell xenografts = test: Human hepatocellular carcinoma xenograft model; type: in vivo, C.B-17 SCID mice; conditions: 0.3 mg/kg doxorubicin, 10 mg/kg 5-fluorouracil, i.p. once a day for 21 days
Method: Animals were housed in cages with free access to food and water. All animals were kept under a 12:12 h light-dark cycle (lights on at 6:00 a.m.). The local Animal Ethics Committee approved the experimental protocol (number 06/2015).
as §1

HepG2 cells [2] = test: DNA synthesis quantification (methyl-[3H]-thymidine incorporation); type: cell-based, human; conditions: HepG2, 12 μM
Method: Cellular DNA synthesis was quantified by the incorporation of methyl-[^3H]-thymidine. Methyl-[^3H]-thymidine is a radiolabeled DNA precursor that is incorporated into newly synthesized DNA. Briefly, the complex was added along with 1 µCi of methyl-[^3H]-thymidine (PerkinElmer; Shelton, CT, USA) and incubated for 3 h. After this incubation period, cultures were harvested using a cell harvester (Brandel, Inc., Gaithersburg, MD, USA), and the amount of incorporated^3H-thymidine was determined using a liquid scintillation cocktail Hidex Maxilight (PerkinElmer Life Sciences; Groningen, GE, Netherlands) and a plate CHAMELEON V multilabel Counter (Mustionkatu 2, Turku, Finland). Mitoxantrone (Sigma-Aldrich) was used as the positive control.

HepG2 cells [3] = test: Trypan blue exclusion assay; type: cell-based, human
B16-F10 = type: cell-based, mouse; conditions: B16-F10 (murine melanoma), 72 h
HepG2 cells [4] = type: cell-based, human; conditions: DOX 2 µM, OXA 10 µM, RCX 12 µM
Method: Briefly, the cells were harvested in a permeabilization solution containing 0.1% Triton X-100, 2 µg/mL PI, 0.1% sodium citrate and 100 µg/mL RNAse (all from Sigma-Aldrich) and incubated in the dark for 15 min at room temperature. Finally, cell fluorescence was measured by flow cytometry with a BD LSRFortessa cytometer using BD FACSDiva Software (BD Biosciences) and FlowJo Software 10 (FlowJo Lcc; Ashland, OR, USA). Ten thousand events were evaluated per experiment, and cellular debris was omitted from the analysis.

[5] = tested on: multicellular spheroids formed from HepG2 cells; test: 3D multicellular spheroid culture, alamar blue; type: cell-based, human; conditions: HepG2 3D spheroids, 72 h
Method: HepG2 cells were cultivated in 3D multicellular spheroids. Briefly, 100 μL of cell solution (0.5 × 10^6 cells/mL) was added to a 96-well plate with a cell-repellent surface (Greiner Bio-One, Kremsmünster, Austria) and cultured in complete medium plus 3% Matrigel (BD Biosciences, San Jose, CA, USA). Spheroids with stable structures formed after three days. Then, the spheroids were exposed to a range of drug concentrations for 72 h. The negative control received the vehicle that was used for diluting the complex tested. In the end of the experiment, morphological changes were examined by light microscopy (Olympus BX41, Tokyo, Japan) using Image-Pro software (Media Cybernetics, Inc. Silver Spring, USA), and cell viability was quantified by alamar blue assay as described above.

HCT116 = type: cell-based, human; conditions: HCT116 (human colon carcinoma), 72 h
K-562 = type: cell-based, human; conditions: K-562 (human chronic myelogenous leukemia), 72 h
HepG2 = type: cell-based, human; conditions: HepG2 (human hepatocellular carcinoma), monolayer, 72 h
HL-60 = type: cell-based, human; conditions: HL-60 (human promyelocytic leukemia), 72 h
HSC-3 = type: cell-based, human; conditions: HSC-3 (human oral squamous cell carcinoma), 72 h
PBMC = type: cell-based; conditions: PBMC (human peripheral blood mononuclear cells, non-cancer), 72 h
MRC-5 = type: cell-based; conditions: MRC-5 (human lung fibroblast, non-cancer), 72 h
SCC-4 = type: cell-based, human; conditions: SCC-4 (human oral squamous cell carcinoma), 72 h
HepG2 cells [6] = test: Annexin V/PI staining assay (flow cytometry)
Method: For apoptosis detection, we used the FITC Annexin V Apoptosis Detection Kit I (BD Biosciences), and the analysis was performed according to the manufacturer’s instructions. Briefly, cells were washed twice with saline and then resuspended in 100 μL of binding buffer with 5 μL of PI and 5 μL of FITC Annexin V. The cells were gently mixed by vortexing and incubated for 15 min at room temperature in the dark. Afterwards, 400 μL of binding buffer was added to each tube, and the cell fluorescence was determined by flow cytometry, as described above. The percent of viable, early apoptotic, late apoptotic and necrotic cells were determined. […] The cells were then trypsinized, and the FITC Annexin V Apoptosis Detection assay was conducted as described above.

[7] = tested on: panel of 15 cancer cell lines and 3 non-cancer cells; test: Alamar blue cytotoxicity assay, whole panel; type: cell-based; conditions: any cells of the panel, 72 h
Method: A panel of 15 cancer cell lines, 3 non-cancer cells and 1 mutant and its parental cell line were selected for this study, as detailed in Table S5. The cells were cultured in RPMI 1640 medium (Gibco-BRL, Gaithersburg, MD, USA) with 10% fetal bovine serum (Life, Carlsbad, CA, USA), 2 mM L-glutamine (Vetec Química Fina, Duque de Caxias, RJ, Brazil) and 50 μg/mL gentamycin (Life, Carlsbad, CA, USA). Adherent cells were collected by treatment with 0.25% trypsin EDTA solution (Gibco-BRL). All cell lines were cultured in flasks at 37 °C in 5% CO2 and subcultured every 3–4 days to maintain exponential growth. All cell lines were tested for mycoplasma using a mycoplasma stain kit (Sigma-Aldrich) to validate the use of cells free from contamination. […]
Cell viability was quantified colorimetrically using the alamar blue assay according to Ahmed et al.[34]. […] Absorbance was measured at 570 nm and 600 nm using the SpectraMax 190 Microplate Reader (Molecular Devices, Sunnyvale, CA, USA), and the drug effect was quantified as a percent of the absorbance of the control-treated cells.

[8] = peripheral blood, i.p. 21 days, RCX 2.5 mg/kg
[9] = HepG2, 2 h pretreatment (50 µM Z-VAD(Ome)-FMK, 20 µM Z-IETD-FMK, 20 µM Z-LEHD-FMK, 5 µM U-0126, 5 µM SP 600125, 5 µM PD 169316, 10 µM cyclic pifithrin-α), then 12 µM RCX 48 h
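Wherever Final body weight is given: mice bearing subcutaneous HepG2 xenografts, given intraperitoneal doses once daily for 21 days, weighed at start and end, blood leukocytes counted by light microscopy on day 22.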
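Wherever Heart relative weight is given: mice bearing subcutaneous HepG2 xenografts, given intraperitoneal doses once daily for 21 days, weighed at start and end, blood leukocytes counted by light microscopy on day 22.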
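Wherever Initial body weight is given: mice bearing subcutaneous HepG2 xenografts, given intraperitoneal doses once daily for 21 days, weighed at start and end, blood leukocytes counted by light microscopy on day 22.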
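Wherever Kidney relative weight is given: mice bearing subcutaneous HepG2 xenografts, given intraperitoneal doses once daily for 21 days, weighed at start and end, blood leukocytes counted by light microscopy on day 22.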

Which Initial body weight ([1]; before treatment, RCX 2.5 mg/kg groups) does the source give for `O=c1[nH]cc(F)c(=O)[nH]1` [5-FU, 5-fluorouracil] here?
The Initial body weight was 25.2 ± 0.4 g.

What about the Final body weight ([1]; i.p. 21 days, RCX 2.5 mg/kg) of the same compound?
Its Final body weight is 24.1 ± 1.7 g.

What about the Heart relative weight ([1]; i.p. 21 days, RCX 2.5 mg/kg) of the same compound?
Its Heart relative weight is 0.5 ± 0.2 g/100 g body weight.

What about the Kidney relative weight ([1]; i.p. 21 days, RCX 2.5 mg/kg) of the same compound?
Its Kidney relative weight is 1.2 ± 0.4 g/100 g body weight.

What about the Liver relative weight ([1]; i.p. 21 days, RCX 2.5 mg/kg) of the same compound?
Its Liver relative weight is 3.4 ± 0.7 g/100 g body weight.

And the Lung relative weight ([1]; i.p. 21 days, RCX 2.5 mg/kg)?
The Lung relative weight was 0.6 ± 0.2 g/100 g body weight.

What about the Survival ([1]; i.p. 21 days, RCX 2.5 mg/kg) of the same compound?
Its Survival is 9/15.

And the “Differential leukocytes: Eosinophils” value [1, 8]?
Its value is 1.0%.

What about the “Differential leukocytes: Lymphocytes” value [1, 8] of the same compound?
Its value is 32.8%.

And the “Differential leukocytes: Monocytes” value [1, 8]?
Its value is 1.3%.

What about the “Differential leukocytes: Neutrophils” value [1, 8] of the same compound?
Its value is 65.0%.

What about the Erythrocytes [1, 8] of the same compound?
Its Erythrocytes is 8.4 ± 0.5 10^6cells/μL.

And the Total leukocytes [1, 8]?
Its Total leukocytes is 1.8 ± 0.3* 10^3cells/μL.

And the IC50 (BAD KO SV40 MEF)?
Its IC50 is 7.3 µM.

What about the IC50 (WT SV40 MEF) of the same compound?
The IC50 was 1.7 µM.

What about the “reduction of tumor weight” value (HepG2 cell xenografts) of the same compound?
Its value is 40.3%.

With `O=C1c2c(O)ccc(O)c2C(=O)c2c(NCCNCCO)ccc(NCCNCCO)c21` [Mitoxantrone] as the compound, how does the “reduction of DNA synthesis” value (HepG2 cells [2]) read?
Its value is 55.2%.

With `CC(=O)N[C@@H](CS)C(=O)O` [N-acetyl-L-cysteine] as the compound, how does the “protection against RCX-induced reduction in viable cells” value (HepG2 cells [3]; HepG2, 1 h pretreatment with 5 mM NAC, then 12 µM RCX for 24 h) read?
The value was “did not prevent the reduction in the number of viable cells”.

For `O=C1[O][Pt]2([NH][C@@H]3CCCC[C@H]3[NH]2)[O]C1=O` [OXA, oxaliplatin], which IC50 (B16-F10) is on record?
Its IC50 is 2.2 µM.

What about the “DNA content S” value (HepG2 cells [4]; HepG2, 12 h) of the same compound?
The value was 12.9 ± 4.4%.

What about the “DNA content S” value (HepG2 cells [4]; HepG2, 24 h) of the same compound?
Its value is 18.5 ± 1.4%.

And the “DNA content S” value (HepG2 cells [4]; HepG2, 48 h)?
The value was 21.2 ± 1.7 %.

What about the “DNA content S” value (HepG2 cells [4]; HepG2, 72 h) of the same compound?
The value was 16.2 ± 1.1%.

What about the IC50 [5] of the same compound?
The IC50 was 6.6 µM.

And the IC50 (HCT116)?
The IC50 was 4.1 µM.

What about the IC50 (K-562) of the same compound?
Its IC50 is 1 µM.

And the “change in the number of viable cells” value (HepG2 cells [3]; HepG2, 24 h, DOX 2 µM, OXA 10 µM)?
Its value is “reduced the number of viable cells”.

And the IC50 (HepG2)?
The IC50 was 2.2 µM.

And the IC50 (HL-60)?
The IC50 was 0.6 µM.

And the IC50 (HSC-3)?
The IC50 was 3.3 µM.

What about the IC50 (PBMC) of the same compound?
Its IC50 is 9.4 µM.

What about the IC50 (MRC-5) of the same compound?
Its IC50 is 9.5 µM.

What about the IC50 (SCC-4) of the same compound?
The IC50 was 7.7 µM.

Which “effect of inhibitor pretreatment on RCX-induced apoptosis” value (“effect of inhibitor pretreatment” below) (HepG2 cells [6]; [9]) does the source give for `Oc1c2ccccc2c2c3c(cccc13)N=N2` [SP 600125] here?
The value was “did not prevent RCX-induced apoptosis”.

For `N#CC(=C(/N)Sc1ccccc1N)/C(C#N)=C(/N)Sc1ccccc1N` [U-0126], which “effect of inhibitor pretreatment” value (HepG2 cells [6]) is on record?
Its value is “prevented RCX-induced apoptosis”.

With `CC[C@H](C)[C@H](NC(=O)OCc1ccccc1)C(=O)N[C@@H](CCC(=O)OC)C(=O)N[C@H](C(=O)N[C@@H](CC(=O)OC)C(=O)CF)[C@@H](C)O` [Z-IETD-FMK] (Cbz-IE(OMe)TD(OMe)-CH2F) as the compound, how does the “effect of inhibitor pretreatment” value (HepG2 cells [6]) read?
Its value is “prevented the RCX-induced apoptosis”.

For `COC(=O)CC[C@H](NC(=O)[C@H](CC(C)C)NC(=O)OCc1ccccc1)C(=O)N[C@@H](Cc1cnc[nH]1)C(=O)N[C@@H](CC(=O)OC)C(=O)CF` [Z-LEHD-FMK] (Cbz-LE(OMe)HD(OMe)-CH2F), which “effect of inhibitor pretreatment” value (HepG2 cells [6]; [9]) is on record?
The value was “prevented the RCX-induced apoptosis”.

Which “effect of inhibitor pretreatment” value (HepG2 cells [6]) does the source give for `COC(=O)C[C@H](NC(=O)[C@H](C)NC(=O)[C@@H](NC(=O)OCc1ccccc1)C(C)C)C(=O)CF` [Z-VAD(OMe)-FMK] (Cbz-Val-Ala-Asp(OMe)-CH2F) here?
Its value is “prevented the RCX-induced apoptosis”.

Which “effect of inhibitor pretreatment” value (HepG2 cells [6]) does the source give for `Cc1ccc(-c2cn3c4c(sc3n2)CCCC4)cc1` [cyclic pifithrin-α] here?
The value was “did not prevent the RCX-induced apoptosis”.

With `COc1cc(O)c(C(C)=O)c(OC)c1` [xanthoxylin, 2-hydroxy-4,6-dimethoxyacetophenone] as the compound, how does the IC50 [7] read?
The IC50 was greater than 127 µM.
